Measured values reported in ChEMBL document CHEMBL5579852, “Promising anti-proliferative indolic benzenesulfonamides alter mechanisms with sulfonamide nitrogen substituents” (Eur J Med Chem, 2024).
Active and inactive are the calls of the source. No cut-off for these calls is given here.

Experiments:
MES-SA [1] = assay: Induction of apoptosis in human MES-SA cells assessed as necrotic cells at 100 nM incubated for 24 hrs by live/dead orange and TUNEL staining based flow cytometry analysis relative to control; type: functional
HeLa [2] = assay: Antiproliferative activity against human HeLa cells assessed as reduction in cell viability incubated for 72 hrs by MTT assay; type: functional, cell-based
MCF7 = assay: Antiproliferative activity against human MCF7 cells assessed as reduction in cell viability incubated for 72 hrs by CelltiterGlo luminescent assay; type: functional, cell-based; conditions: MCF7, 72 h
BT-474 = assay: Antiproliferative activity against human BT-474 cells assessed as reduction in cell viability incubated for 72 hrs by CelltiterGlo luminescent assay; conditions: BT-474, 72 h
MES-SA [3] = assay: Antiproliferative activity against human MES-SA cells assessed as reduction in cell viability incubated for 72 hrs by CelltiterGlo luminescent assay
HT-1080 = assay: Antiproliferative activity against human HT-1080 cells assessed as reduction in cell viability incubated for 72 hrs by CelltiterGlo luminescent assay; conditions: HT-1080, 72 h
[4] = Antiproliferative activity against human Melmet 5 cells assessed as reduction in cell viability incubated for 72 hrs by CelltiterGlo luminescent assay; conditions: Melmet 5, 72 h
A-375 = assay: Antiproliferative activity against human A-375 cells assessed as reduction in cell viability incubated for 72 hrs by CelltiterGlo luminescent assay; conditions: A-375, 72 h
[5] = Antiproliferative activity against human WM1366 cells assessed as reduction in cell viability incubated for 72 hrs by CelltiterGlo luminescent assay; conditions: WM1366, 72 h
[6] = Antiproliferative activity against human Hermes 3C cells assessed as reduction in cell viability incubated for 72 hrs by CelltiterGlo luminescent assay; type: toxicity, cell-based
[7] = Antiproliferative activity against human HEK293 cells assessed as reduction in cell viability incubated for 72 hrs by CelltiterGlo luminescent assay; type: toxicity, cell-based
[8] = Antiproliferative activity against human RPE-1 cells assessed as reduction in cell viability incubated for 72 hrs by CelltiterGlo luminescent assay; type: toxicity, cell-based; conditions: RPE-1 cells (TERT-RPE1)
HeLa [9] = assay: Antiproliferative activity against human HeLa cells assessed as reduction in cell viability incubated for 72 hrs by CelltiterGlo luminescent assay; type: functional, cell-based
HeLa [10] = assay: Antiproliferative activity against human HeLa cells assessed as inhibition of cell growth incubated for 72 hrs in absence of verapamil by MTT assay; type: functional, cell-based
HeLa [11] = assay: Antiproliferative activity against human HeLa cells assessed as inhibition of cell growth incubated for 72 hrs in presence of verapamil by MTT assay; type: functional, cell-based
MES-SA [12] = assay: Cell cycle distribution in human MES-SA cells assessed as accumulation of cells in G1 phase cells at 100 nM incubated for 24 hrs by Hoechst 33258 staining based flow cytometry (reference value: 60%); type: functional
MES-SA [13] = assay: Cell cycle distribution in human MES-SA cells assessed as accumulation of cells in G2 phase cells at 100 nM incubated for 24 hrs by Hoechst 33258 staining based flow cytometry (reference value: 12 %); type: functional
MES-SA [14] = assay: Cell cycle distribution in human MES-SA cells assessed as accumulation of cells in M phase cells at 100 nM incubated for 24 hrs by Hoechst 33258 staining based flow cytometry (reference value: 1.3 %); type: functional
MES-SA [15] = assay: Cell cycle distribution in human MES-SA cells assessed as accumulation of cells in S phase cells at 100 nM incubated for 24 hrs by Hoechst 33258 staining based flow cytometry (reference value: 27 %); type: functional
MES-SA [16] = assay: Induction of apoptosis in human MES-SA cells assessed as late apoptotic cells at 100 nM incubated for 24 hrs by live/dead orange and TUNEL staining based flow cytometry analysis relative to control; type: functional
MES-SA [17] = assay: Induction of apoptosis in human MES-SA cells assessed as apoptotic cells at 100 nM incubated for 24 hrs by live/dead orange and TUNEL staining based flow cytometry analysis relative to control; type: functional
MES-SA [18] = assay: Induction of apoptosis in human MES-SA cells assessed as live cells at 100 nM incubated for 24 hrs by live/dead orange and TUNEL staining based flow cytometry analysis relative to control; type: functional
MES-SA [19] = assay: Induction of apoptosis in human MES-SA cells assessed as increase in caspase 3/7 activation at 100 nM by live-cell imaging based fluorescence assay; type: functional; conditions: time 3.0 day, TDE = time-dependent effect
Tubulin (Homo sapiens) = Tubulin (Homo sapiens) (UniProt P68371+Q9H4B7+P0DPH7+P68366+Q13509+Q71U36+P04350+Q3ZCM7+P07437+P68363+Q9BQE3+Q6PEY2+Q13885+Q9BVA1+Q9BUF5); assay: Inhibition of tubulin polymerization in human MES-SA cells assessed as appearance of spherical shaped cells at 10 nM incubated for 24 hrs by DAPI staining based confocal microscopy analysis; type: cell-based
MES-SA [20] = assay: Cell cycle distribution in human MES-SA cells assessed as accumulation of cells in G2/M phase cells at 100 nM incubated for 24 hrs by Hoechst 33258 staining based flow cytometry (reference value: 13.3 %); type: functional
MDA-MB-468 = assay: cells; conditions: Homo sapiens, MDA-MB-468, 72 h
Description: Antiproliferative activity against human MDA-MB-468 cells assessed as reduction in cell viability incubated for 72 hrs by CelltiterGlo luminescent assay

cells = conditions: Homo sapiens, MDA-MB-468, 72 h
CAKI-1 [21] = assay: Antiproliferative activity against human CAKI-1 cells assessed as reduction in cell viability incubated for 72 hrs by CelltiterGlo luminescent assay
CAKI-1 [22] = assay: Antiproliferative activity against human CAKI-1 cells assessed as reduction in cell viability incubated for 72 hrs by CelltiterGlo luminescent assay; conditions: CAKI-1, 72 h
MES-SA [23] = assay: Induction of apoptosis in human MES-SA cells assessed as dead cells at 100 nM incubated for 24 hrs by live/dead orange and TUNEL staining based flow cytometry analysis relative to control; type: functional
MES-SA [24] = assay: Induction of apoptosis in human MES-SA cells assessed as caspase 3/7 activation at 1 uM incubated for 24 hrs by live-cell imaging based fluorescence assay; type: functional
MES-SA [25] = assay: Induction of apoptosis in human MES-SA cells assessed as caspase 3/7 activation at 1 uM incubated for 48 to 72 hrs by live-cell imaging based fluorescence assay; type: functional; conditions: time lower […], time upper 72.0 hrs

| Compound | Activity (MES-SA [1]) [%] | IC50 (HeLa [2]) [nM] | IC50 (MCF7) [nM] | IC50 (BT-474) [nM] | IC50 (MES-SA [3]) [nM] | IC50 (HT-1080) [nM] | IC50 [4] [nM] | IC50 (A-375) [nM] | IC50 [5] [nM] | IC50 at 72 h [6] [nM] | IC50 at 72 h [7] [nM] | IC50 at 72 h [8] [nM] | IC50 (HeLa [9]) [nM] | IC50 (HeLa [10]) [nM] | IC50 (HeLa [11]) [nM] | Activity (MES-SA [12]) [%] | Activity (MES-SA [13]) [%] | Activity (MES-SA [14]) [%] | Activity (MES-SA [15]) [%] | Activity (MES-SA [16]) [%] | other results |
| --- | --- | --- | --- | --- | --- | --- | --- | --- | --- | --- | --- | --- | --- | --- | --- | --- | --- | --- | --- | --- | --- |
| COc1cc(S(=O)(=O)N(C)c2ccc3c(c2)c(C#N)cn3C)cc(OC)c1OC | 2.3 | 8 | 12.3 | 16.3 | 6.3 | 15.3 | 10.6 | 11.7 | 20.2 | 45.6 | 29 | 13.2 | 16 | 25.7 | 24.6 | 4 | 10 | 75.3 | 6 | 1.3 | Activity (MES-SA [17]): 5%; Activity (MES-SA [18]): 91.4%; Activity (MES-SA [19]): Tde; inhibition (Tubulin (Homo sapiens)): Active; Activity (MES-SA [20]): 83.6%; IC50 (MDA-MB-468): 28 nM; IC50 (cells): 69.5 nM; Activity (CAKI-1 [21]): inactive |
| COc1cc(S(=O)(=O)N(C)c2ccc3c(c2)c(C(N)=O)cn3C)cc(OC)c1OC | 1.8 | 15 | 44 | 17.9 | 12.2 | 14.3 | 12.2 | 22.8 | 21.3 | 31.8 | 92.2 | 22.7 | 13.9 | 24.3 | 18.2 | 4 | 10 | 75.3 | 6 | 1.6 | IC50 (CAKI-1 [22]): 29.6 nM; Activity (MES-SA [17]): 4.8%; Activity (MES-SA [18]): 91.8%; Activity (MES-SA [19]): Tde; inhibition (Tubulin (Homo sapiens)): Active; Activity (MES-SA [20]): 83.6%; IC50 (MDA-MB-468): 26 nM; IC50 (cells): 70.8 nM |
| COc1cc(S(=O)(=O)Nc2ccc3c(c2)c(C#N)cn3C)cc(OC)c1OC | 4.5 | 43 | 12.1 | 57.5 | 11.8 | 12.1 | 1.6 | 33.2 | 65.7 | 87.1 | 18.2 | 52.8 | 13.3 | 43 | 29.1 | 4 | 22 | 67.7 | 6 | 1.8 | IC50 (CAKI-1 [22]): 32.4 nM; Activity (MES-SA [17]): 5.8%; Activity (MES-SA [18]): 88%; Activity (MES-SA [23]): 12%; Activity (MES-SA [19]): Tde; inhibition (Tubulin (Homo sapiens)): inactive; Activity (MES-SA [20]): 83.6%; IC50 (MDA-MB-468): 11.8 nM; IC50 (cells): 12.4 nM |
| CN[C@@H]1C[C@H]2O[C@@](C)([C@@H]1OC)n1c3ccccc3c3c4c(c5c6ccccc6n2c5c31)C(=O)NC4 |  |  |  |  |  |  |  |  |  |  |  |  |  |  |  |  |  |  |  |  | Activity (MES-SA [24]): Active; Activity (MES-SA [25]): inactive |
| COc1cc(S(=O)(=O)N(C)c2ccc3c(ccn3C)c2)cc(OC)c1OC | 3.4 | 3.2 | 15.8 | 34.5 | 9 | 11.8 | 12.9 | 17.5 | 13.5 | 67.4 | 12.3 | 20 | 14.5 | 50.1 | 40.9 | 4 | 10 | 75.3 | 6 | 0.9 | IC50 (CAKI-1 [22]): 11 nM; Activity (MES-SA [17]): 5.7%; Activity (MES-SA [18]): 90%; Activity (MES-SA [19]): Tde; inhibition (Tubulin (Homo sapiens)): Active; Activity (MES-SA [20]): 83.6%; IC50 (MDA-MB-468): 24.4 nM; IC50 (cells): 67.6 nM |
| COc1cc(S(=O)(=O)N(CC#N)c2ccc3c(ccn3C)c2)cc(OC)c1OC | 4.5 | 1.7 | 13.7 | 68.3 | 8.9 | 9.9 | 8.9 | 22.1 | 52.8 | 44.7 | 23.4 | 80.4 | 11 | 22.3 | 16.3 | 4 | 35 | 48.6 | 6 | 0.5 | IC50 (CAKI-1 [22]): 56.2 nM; Activity (MES-SA [17]): 3.1%; Activity (MES-SA [18]): 92%; Activity (MES-SA [23]): 8%; Activity (MES-SA [19]): Tde; inhibition (Tubulin (Homo sapiens)): inactive; Activity (MES-SA [20]): 83.6%; IC50 (MDA-MB-468): 13 nM; IC50 (cells): 14.8 nM |
| COc1cc(S(=O)(=O)Nc2ccc3c(ccn3C)c2)cc(OC)c1OC | 4.7 | 5.3 | 1.4 | 46.1 | 5.6 | 5.6 | 1.4 | 6.4 | 7.1 | 61 | 4.9 | 5.7 | 3.9 | 22.9 | 17.9 | 4 | 29 | 56.8 | 6 | 0.8 | IC50 (CAKI-1 [22]): 4 nM; Activity (MES-SA [17]): 4.2%; Activity (MES-SA [18]): 90.3%; Activity (MES-SA [19]): Tde; inhibition (Tubulin (Homo sapiens)): inactive; Activity (MES-SA [20]): 83.6%; IC50 (MDA-MB-468): 4.5 nM; IC50 (cells): 29.6 nM |
